According to patent publication US20060088472A1, “E7 regulation of p21 cip1 through akt” (priority 2002, published 2006):
Where two headings read alike, the source gives them in different places. Residues, ends and D or L forms follow the SMILES beside them. *: point of attachment. Cbz = O=C(OCc1ccccc1)*

T1: RB (retinoblastoma protein, endogenous, in lysate of RafAR-NIH3T3 control cells) (UniProt P13405 2-921)
T1 sequence: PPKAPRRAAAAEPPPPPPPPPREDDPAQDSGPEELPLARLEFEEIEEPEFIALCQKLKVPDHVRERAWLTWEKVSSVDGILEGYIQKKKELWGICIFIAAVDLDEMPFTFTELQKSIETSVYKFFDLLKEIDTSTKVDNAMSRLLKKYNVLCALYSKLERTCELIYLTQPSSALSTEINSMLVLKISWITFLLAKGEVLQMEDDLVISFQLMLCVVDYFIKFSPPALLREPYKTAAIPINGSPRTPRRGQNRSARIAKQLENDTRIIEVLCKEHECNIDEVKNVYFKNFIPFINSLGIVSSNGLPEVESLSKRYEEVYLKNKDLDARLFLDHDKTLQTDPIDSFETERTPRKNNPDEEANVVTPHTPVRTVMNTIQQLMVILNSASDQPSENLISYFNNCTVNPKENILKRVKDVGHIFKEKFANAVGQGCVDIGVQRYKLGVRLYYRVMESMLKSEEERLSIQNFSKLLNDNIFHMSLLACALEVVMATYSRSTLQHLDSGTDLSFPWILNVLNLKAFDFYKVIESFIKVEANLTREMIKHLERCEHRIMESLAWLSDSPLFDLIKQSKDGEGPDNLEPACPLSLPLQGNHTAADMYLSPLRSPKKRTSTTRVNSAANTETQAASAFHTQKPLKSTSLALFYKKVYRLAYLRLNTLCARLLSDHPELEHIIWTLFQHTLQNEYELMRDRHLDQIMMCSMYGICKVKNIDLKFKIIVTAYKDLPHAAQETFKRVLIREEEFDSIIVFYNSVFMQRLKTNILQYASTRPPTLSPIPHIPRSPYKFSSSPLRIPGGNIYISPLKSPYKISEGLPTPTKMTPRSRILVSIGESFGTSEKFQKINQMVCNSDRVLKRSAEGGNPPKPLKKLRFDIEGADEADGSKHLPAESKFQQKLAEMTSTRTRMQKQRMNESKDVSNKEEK

B1: purified recombinant GST-E7 (HPV16 E7) (other)
chain: MHGDTPTLHEYMLDLQPETTDLYCYEQLNDSSEEEDEIDGPAGQAEPDRAHYNIVTFCCKCDSTLRLCVQSTHVDIRTLEDLLMGTLGIVCPICSQKP
B2: p21^Cip1 (endogenous, in lysates of RafAR-expressing NIH3T3 cells) (other, UniProt P39689 2-159, looked up)
chain: SNPGDVRPVPHRSKVCRCLFGPVDSEQLRRDCDALMAGCLQEARERWNFDFVTETPLEGNFVWERVRSLGLPKVYLSPGSRSRDDLGGDKRPSTSSALLQGPAPEDHVALSLSCTLVSERPEDSPGGPGTSQGRKRRQTSLTDFYHSKRRLVFCKRKP
notes: also called p21^Cpi1

Columns and labels:
[1] = tested on: Akt phosphorylated on serine 473 (P-Akt); format: cell-based, murine
Experimental: The drugs and R1881 were added at 0 hr and the samples were taken at 6 hrs post-treatment.
Immunoblotting and immunoprecipitations (IP). Cell pellets were lysed in HLB lysis buffer (50 mM Tris pH 8.0, 150 mM NaCl, 1% Triton X-100, 1 mM DTT, and protease inhibitor cocktail (Sigma P8340)) for 30 minutes with vortexing. After centrifugation, protein content was quantitated via a standard BioRad Bradford assay. For immunoblotting, 30-50 μg of cell lysate was separated by sodium dodecyl sulfate-polyacrylamide gel electrophoresis (SDS-PAGE) and transferred onto nitrocellulose membrane (Schleicher and Schuell). After incubation with primary and secondary antibodies, antigen detection was performed using the enhanced chemiluminescence kit from NEN. The following antibodies were obtained from Santa Cruz: α-cyclin D1 (sc-450, Western), α-cyclin D2 (sc-593, Western), α-cyclin E (sc-481, IP and Western), α-human cyclin E (sc-198, IP and Western), α-CDK2 (sc-163 g, IP and Western), α-CDK4 (sc-260, IP and Western), α-p21^Cip1 (sc-6246, Western), α-p21^Cip1 (sc-397, IP and immunofluorescence), and a-phospho-threonine (sc-5267, Western). HPV-16 E7-specific and RB-specific antibodies were purchased from Zymed and Pharmingen, respectively. Antibodies recognizing Akt or Akt phosphorylated at serine-473 were obtained from Cell Signaling. For immunoprecipitations, cell lysates were incubated with primary antibodies for 2 hours at 4° C., and immune-complexes were collected on Protein A-agarose beads (Santa Cruz) for an additional 1 hour. The complexes were washed four times with HLB buffer and resolved by 12% SDS-PAGE for immunoblotting.
c-Raf-1 was induced by addition of the androgen analog R1881, as described herein and the cells harvested at various times thereafter.

[2] = tested on: NIH3T3 cells stably expressing the RafAR fusion protein; assay: Cell cycle analysis (BrdU incorporation / propidium iodide) in RafAR-expressing NIH3T3 cells; format: cell-based, murine; conditions: control cells (Babe), RafAR activation with 1.0 μM R1881, 30 hours
Experimental: (A) NIH3T3 cells stably expressing the RafAR fusion protein were infected with amphotrophic retroviruses expressing HPV-16 E7 (E7) or empty vector (Babe). Lysates were prepared and 100 μg of protein was resolved by 15% SDS-PAGE, transferred to nitrocellulose membrane, and probed with a monoclonal antibody directed against HPV-16 E7. (B and C) Pools of Babe- or E7-expressing cells growing in DMEM plus 10% NCS were treated with 0.02% ethanol (−) or 1.0 μM R1881 (+) for 30 hours and pulsed with BrdU for 30 minutes. Cells were trypsinized, fixed in 70% ethanol, and stained with propidium iodide (PI) for detection of total DNA content (B) and with α-BrdU-FITC for detection of DNA synthesis (C).
(A) E7-expressing cells were treated for 30 hours with 1.0 μM R1881 in the absence or presence of increasing concentrations of LY294002 (50 μM, 100 μM, 200 μM), an inhibitor of PI-3K activity. DNA synthesis was measured via BrdU incorporation. (B) E7-expressing cells were treated with 1.0 uM R1881 in the presence or absence of 100 uM LY294002, stained with p21^Cip1-specific antibody, and quantitated for nuclear p21^Cip1 localization as in FIG. 7. […] Cells were stained with α-BrdU, and GFP-positive cells were scored for BrdU incorporation via indirect immunofluorescence. Percentages of BrdU incorporation were calculated by defining the number obtained from vehicle-treated cells as 100%. […]

RafAR-expressing NIH3T3 = assay: Cell morphology after RafAR activation in NIH3T3; format: cell-based, murine; conditions: RafAR activation with 1.0 μM R1881
[3] = tested on: human foreskin keratinocytes (HFK); assay: Adriamycin DNA damage in control or E7-expressing HFK, Western blots for active Akt and p21^CIP; format: cell-based; conditions: 0.1 mM Adriamycin, 17 hours
[4] = tested on: p27^Kip1 nuclear localization; assay: p27^Kip1 localization by immunofluorescence in TGF-β treated tet-E7 Mv1Lu cells; format: cell-based, mink; conditions: 3 ng/mL TGF-β, 24 hours, absence of E7
Experimental: (A) Tet-E7 Mv1Lu cells were treated for 24 hours with 2 μg/mL doxycycline or vehicle. Cell lysates were analyzed by Western blotting with antibody specific for HPV16 E7. (B) Tet-E7 Mv1Lu cells were treated for 24 hours with 3 ng/mL TGF-β in the presence or absence of 2 μg/mL doxycycline and subsequently analyzed for p27^Kip1 expression via Western blot. (C, D) Tet-E7 Mv1Lu cells were treated as in (B), fixed with 3.7% paraformaldehyde, and stained with p27^Kip1 specific antibody as described in Materials and Methods. (C) Representative fluorescent (left panels) and phase contrast (right panels) micrographs of TGF-β treated cells in the absence (upper panels) or presence (lower panels) of doxycycline. […] The number of cells with nuclear p27^Kip1 accumulation is represented as a percentage of total cells counted. The average and deviation values shown are from two independent experiments with at least 200 cells counted per experiment.
Cell culture. NIH3T3 cells stably expressing the RafAR fusion protein have been described previously (Sewing et al., 1997). This cell line and all derivatives were cultured in DMEM without phenol red (GIBCO-BRL) supplemented with 10% charcoal-stripped newborn calf serum (NCS, Hyclone). […]
Immunofluorescence. […] Antigen staining was visualized by inverted fluorescence microscopy (Olympus CK40), and images were captured with Quality Imaging camera and software. […]

[5] = molecular target: B2; assay: GST pull-down from control cell lysate, Western blot
[6] = molecular target: T1, RB (retinoblastoma protein, endogenous, …); assay: as above
[7] = molecular target: cyclin E (endogenous, in lysates of RafAR-NIH3T3 cells) (UniProt Q61457 1-408); assay: cyclin E immunoprecipitation, p21^Cip1 Western blot
[8] = drug added with R1881 at 0 hr, samples taken 6 hrs post-treatment

## CC(C)C[C@@H](C=O)NC(=O)[C@H](CC(C)C)NC(=O)[C@H](CC(C)C)NC(=O)OCc1ccccc1 [MG132] (Cbz-Leu-Leu-Leu-aldehyde)
[1]; [8]
  down-regulation of active Akt (P-Akt) on induction of c-Raf-1: down-regulation of P-Akt was similar to control cells

## C[C@]1(O)CC[C@H]2[C@@H]3CCC4=CC(=O)CCC4=C3C=C[C@@]21C [R1881, methyltrienolone]
[2]
  DNA synthesis: inhibition of DNA synthesis
  cells accumulating in G1: > 85%
RafAR-expressing NIH3T3
  cell morphology: morphological changes including elongation and development of extended processes
[1]; c-Raf-1 induced by R1881
  time post-treatment at which down-regulation of active Akt (P-Akt) is observed: ≤ 5 h
  time post-treatment at which total Akt protein levels decrease: 19 to 26 h

## N#CC(=C(/N)Sc1ccccc1N)/C(C#N)=C(\N)Sc1ccccc1N [U0126]
[1]
  basal level of active Akt: increased
  down-regulation of active Akt (P-Akt) on induction of c-Raf-1: down-regulation is inhibited

## COc1cccc2c1C(=O)c1c(O)c3c(c(O)c1C2=O)C[C@@](O)(C(=O)CO)C[C@@H]3O[C@H]1C[C@H](N)[C@H](O)[C@H](C)O1 [adriamycin]
[3]
  active Akt levels after adriamycin treatment: maintained only in E7-expressing cells
  p21^CIP levels after adriamycin treatment: increased

## C[C@@H]1C[C@@H]([C@H](O)CC2CC(=O)NC(=O)C2)C(=O)[C@@H](C)C1 [cyclohexamide]
[1]; [8]
  down-regulation of active Akt (P-Akt) on induction of c-Raf-1: inhibited the down-regulation of Akt

## TGF-β
[4]
  nuclear accumulation of p27^Kip1: robust nuclear accumulation

## B1
[5]
  binding result: no binding
[6]
  binding result: binds

## B2
[7]
  binding result: binds
